What was measured:
Experiment in all cases: relative viability (nuclei count vs DMSO), 5 days (fraction); higher = more cells survive
[1] = compound: Cc1cc([C@@H](C)Nc2ccccc2C(=O)O)c2nc(N3CCOCC3)cc(=O)n2c1 [AZD6482] + NC(=O)Nc1cc(-c2cccc(F)c2)sc1C(=O)N[C@H]1CCCNC1 [AZD7762] (partner 0.2 µM)
Method in brief: (§1)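 One day after seeding in 1536-well plates, lung cancer cell lines were dosed by pin tool. Dosing was either single-drug or a fixed anchor-drug dose plus five library-drug doses (not always all listed) in √10 steps. After 5 days, nuclei were stained in one fix-and-stain step and counted on 4× images, and relative viability is the nuclei count of treated wells over that of vehicle wells, given as the median of duplicate plates.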

[2] = compound: Cc1cc([C@@H](C)Nc2ccccc2C(=O)O)c2nc(N3CCOCC3)cc(=O)n2c1 [AZD6482] + CCNC(=O)c1noc(-c2cc(C(C)C)c(O)cc2O)c1-c1ccc(CN2CCOCC2)cc1 [Luminespib] (partner 0.01 µM)
Method in brief: as §1

[3] = compound: COc1cc2nc(N3CCCN(C)CC3)nc(NC3CCN(Cc4ccccc4)CC3)c2cc1OC + COc1cccc2cc(-c3nc([C@H]4CC[C@H](C(=O)O)CC4)n4ncnc(N)c34)[nH]c12 [OSI-027] (partner 0.5 µM)
Method in brief: as §1

[4] = compound: Cc1cc([C@@H](C)Nc2ccccc2C(=O)O)c2nc(N3CCOCC3)cc(=O)n2c1 [AZD6482] + CS(=O)(=O)CCNCc1ccc(-c2ccc3ncnc(Nc4ccc(OCc5cccc(F)c5)c(Cl)c4)c3c2)o1 [Lapatinib] (partner 2 µM)
Method in brief: as §1

Row | Cell Line | relative viability ([1]; first compound 0.08 µM) | relative viability ([1]; first compound 0.253 µM) | relative viability ([1]; first compound 0.8 µM) | relative viability ([1]; first compound 2.53 µM) | relative viability ([1]; first compound 8 µM) | relative viability ([2]; first compound 0.08 µM) | relative viability ([2]; first compound 0.253 µM) | relative viability ([2]; first compound 0.8 µM) | relative viability ([2]; first compound 2.53 µM) | relative viability ([2]; first compound 8 µM) | relative viability ([3]; first compound 0.2 µM) | relative viability ([3]; first compound 0.6325 µM) | relative viability ([3]; first compound 2 µM) | relative viability ([3]; first compound 6.325 µM) | relative viability ([4]; first compound 0.08 µM) | relative viability ([4]; first compound 0.253 µM) | relative viability ([4]; first compound 0.8 µM) | relative viability ([4]; first compound 8 µM) | relative viability ([4]; first compound 2.53 µM)
1 | HARA | 0.424 | 0.338 | 0.269 | 0.224 | 0.516 | 0.58 | 0.636 | 0.57 | 0.627 | 0.419 | 0.535 | 0.483 | 0.454 | 0.398 | 0.707 | 0.503 | 0.919 | 0.483 | 
2 | HCC-15 | 1.24 | 1.4 | 1.26 | 1.18 | 1.11 | 0.425 | 0.229 | 0.275 | 0.239 | 0.43 | 0.696 | 0.712 | 0.619 | 0.377 | 0.873 | 0.792 | 0.882 | 0.914 | 0.737
3 | HCC-44 | 0.897 | 0.997 | 1.1 | 1.11 | 1.38 | 0.941 | 1.12 | 0.98 | 0.824 | 1.1 | 0.604 | 0.571 | 0.576 | 0.586 | 0.909 | 1.06 | 1.13 | 0.882 | 1.1
4 | HCC-78 | 0.671 | 0.388 | 0.57 | 0.327 | 0.409 |  |  |  |  |  | 0.381 | 0.33 | 0.329 | 0.377 | 0.512 | 0.683 | 1.52 | 0.503 | 0.255
5 | HCC-366 | 0.23 | 0.243 | 0.253 | 0.179 | 0.25 |  |  |  |  |  | 0.92 | 0.944 | 0.398 | 0.747 | 0.9 | 0.97 | 1.11 | 0.532 | 0.579
6 | HCC-827 | 0.351 | 0.184 | 0.162 | 0.131 | 0.137 | 0.601 | 0.478 | 0.293 | 0.27 | 0.196 | 0.761 | 0.793 | 0.687 | 0.781 | 0.164 | 0.174 | 0.196 | 0.177 | 0.177
7 | HOP-62 | 0.577 | 0.626 | 0.706 | 0.526 | 0.761 | 0.889 | 1.01 | 1.11 | 0.793 | 1.04 | 0.812 | 0.845 | 0.826 | 0.819 | 1.06 | 0.856 | 1.32 | 1.1 | 0.827
8 | LC-2-ad | 0.842 | 0.774 | 0.821 | 0.662 | 0.593 | 0.976 | 0.954 | 1.28 | 0.914 | 1.12 | 0.849 | 0.841 | 0.83 | 0.761 | 1.06 | 0.553 | 1.1 | 0.918 | 0.638
9 | LCLC-97TM1 | 0.344 | 0.157 | 0.442 |  | 0.299 | 0.77 | 0.803 | 0.66 | 0.327 | 0.282 | 0.569 | 0.621 | 0.674 | 0.537 | 1.04 | 1.01 | 1.28 | 0.462 | 0.271

Reference: the supplement of paper PMC10307832
